Each structure is given as a SMILES string. “Also recorded” adds a separate entry of the source. Read-outs that look alike come from different tables or passages of the source.

Data set [1] concerns Pre-EIF4A1 and SLC25A19 expression in Nalm-6 SF3B1^K700E xenograft tumors. Nature of the data set: PK/PD testing in Nalm-6 mouse xenograft model. The note with it: single oral dose. The data set is classed as in vivo, CB17-SCID mice. How it is done: Pharmacokinetics (PK)/pharmacodynamics (PD) of Compound 2 were also analyzed in the Nalm-6 mouse xenograft model. Nalm-6 SF3B1^K700E isogenic cells (human pre B-cell line, 10×10^6 cells) were subcutaneously implanted into the flank of female CB17-SCID mice. Mice were administered a single oral dose of 10 mg/kg Compound 2 (10% ethanol, 5% TWEEN-80, 85% saline), and the tumors were collected at the indicated times post administration for analysis.
RNA was isolated using RiboPure™ RNA purification kit (Ambion®) and used for qPCR analysis. The RNA was retrotranscribed according to the instructions of the SuperScript® VILO™ cDNA synthesis kit (Invitrogen™), and 0.04 μl of cDNA was used for quantitative PCR (qPCR). qPCR for pre-mRNA EIF4A1 and mature mRNA […] and PK evaluation were performed as reported previously (Eskens, F. A. et al. Phase I pharmacokinetic and pharmacodynamic study of the first-in-class spliceosome inhibitor E7107 in patients with advanced solid tumors. Clin Cancer Res. 19, 6296-6304, doi:10.1158/1078-0432.CCR-13-0485 (2013)). All animal studies were carried out according to the H3 Biomedicine Guide for the Care and Use of Laboratory Animals.
Pharmacokinetics (PK)/pharmacodynamics (PD) of Compound 1 were also analyzed in the Nalm-6 mouse xenograft model. […]

The test system of data set [2] is Nalm-6 SF3B1^K700E isogenic cells (human pre B-cell line) xenograft. Nature of the data set: Nalm-6 SF3B1^K700E mouse xenograft efficacy model. Format: in vivo, CB17-SCID mice. The settings on record: orally dosed daily for 14 days (QD×14 PO). How it is done:
The efficacy of Compound 2 was tested in a mouse xenograft model. Nalm-6 SF3B1^K700E isogenic cells (human pre B-cell line, 10×10^6 cells) were subcutaneously implanted into the flank of female CB17-SCID mice. Mice were treated with Compound 2 (10% ethanol, 5% TWEEN-80, 85% saline) or vehicle control. The animals were orally dosed daily for 14 days (QD×14 PO) at the amounts indicated in FIG. 2 and were monitored until they reached either of the following endpoints: 1) excessive tumor volume measured three times a week (tumor volume calculated by using the ellipsoid formula: (length×width^2)/2); or 2) development of any health problems such as paralysis or excessive body weight loss. All animal studies were carried out according to the H3 Biomedicine Guide for the Care and Use of Laboratory Animals.
The efficacy of Compound 1 was tested in a mouse xenograft model. […] The animals were orally dosed daily for 14 days (QD×14 PO) with 7.5 mg/kg or 10 mg/kg Compound 1 or vehicle and were monitored until they reached either of the following endpoints: 1) excessive tumor volume measured three times a week (tumor volume calculated by using the ellipsoid formula: (length×width^2)/2); or 2) development of any health problems such as paralysis or excessive body weight loss. […]

Data set [3] can be described thus: Mouse pharmacokinetic (PK) study. Format: in vivo, CD-1 mice. The settings on record: for oral bioavailability and pharmacokinetic properties (in words): mouse model, IV and PO dosing; for Vd: read-out: Vss; for AUC: read-out: AUCfinite. How it is done:
Compound 2 was dosed at 5 mg/kg IV (intravenous) or 10 mg/kg PO (oral administration) to CD-1 mice. Following administration, blood samples were collected at pre-determined time points from five mice via serial bleeding of the tail vein. Blood was collected at 0.083 (0.167 PO only), 0.5, 1, 2, 4, 6, 8, and 24 hours post administration. The blood samples were centrifuged at 5000 RPM for 5 minutes to collect plasma within 30 minutes of blood collection. After extraction, samples were assayed using LCMS. PK parameters were calculated using non-compartmental analysis in WinNonlin v6.3.
Compound 1 was dosed at 5 mg/kg IV or 12 mg/kg PO to CD-1 mice. Following administration, blood samples were collected at pre-determined time points from five mice via serial bleeding from the tail vein. Blood was collected at 0.083 (0.167 PO only), 0.5, 1, 2, 4, 6, 8, and 24 hours post-dose. The blood samples were centrifuged at 5000 RPM for 5 minutes to collect plasma within 30 minutes of blood collection. After extraction, samples were assayed using LCMS. PK parameters were calculated using non-compartmental analysis in WinNonlin v6.3.
Compound 3 was dosed at 5.964 mg/kg IV or 13.307 mg/kg PO to CD-1 mice. Following administration, blood samples were collected at pre-determined time points from five mice via serial bleeding from the tail vein. Blood was collected at 0.083 (0.167 PO only), 0.5, 1, 2, 4, 6, 8, and 24 hours post-dose. The blood samples were centrifuged at 5000 RPM for 5 minutes to collect plasma within 30 minutes of blood collection. After extraction, samples were assayed using LCMS. PK parameters were calculated using non-compartmental analysis in WinNonlin v6.3.
Compound 4 was dosed at 5 mg/kg IV or 10 mg/kg PO to CD-1 mice. Following administration, blood samples were collected at pre-determined time-points from five mice via serial bleeding from the tail vein. Blood was collected at 0.083 (0.167 PO only), 0.5, 1, 2, 4, 6, 8, and 24 hours post-dose. The blood samples will be centrifuged at 5000 RPM for 5 minutes to collect plasma within 30 minutes of blood collection. After extraction, samples were assayed using LCMS. PK parameters were calculated using non-compartmental analysis in WinNonlin v6.3.

Where [4] appears, read: mouse, plasma, CD-1 mice, 5 mg/kg IV (Table 5).
[5] abbreviates: mouse, plasma, CD-1 mice, 12 mg/kg PO.
Where [6] appears, read: mouse, plasma, CD-1 mice, 5.964 mg/kg IV.
[7] abbreviates: mouse, plasma, CD-1 mice, 13.307 mg/kg PO.
The mark [8] stands for this setting: CD-1 mice, 10 mg/kg PO (Table 7).
[9] abbreviates: mouse, plasma, CD-1 mice, 5 mg/kg IV (Table 7).
[10] abbreviates: mouse, plasma, CD-1 mice, 10 mg/kg PO (Table 7).

The AUC(0-inf) is total exposure, with the tail of the curve extrapolated. Higher therefore signals more exposure. As usually defined, the AUC(0-t) is exposure summed from dosing to a finite time, without extrapolation to infinity. A low value points to low exposure. As a reminder, the half-life is the time in which the quantity being followed falls by half. A higher half-life goes with slow loss. What is called Cmax is the highest concentration seen after dosing. What is called Tmax is the time at which the peak concentration occurs. As usually defined, the bioavailability is the share of a dose that reaches the circulation, judged against a reference dose that is usually intravenous. For the molecule `C/C(=C\C=C\[C@@H](C)c1ccccn1)[C@H]1OC(=O)C[C@H](O)CC[C@@](C)(O)[C@@H](OC(=O)N2CCN(C3CCCCCC3)CC2)/C=C/[C@@H]1C` [Compound 1, (2S,3S,6S,7R,10R,E)-7,10-dihydroxy-3,7-dimethyl-12-oxo-2-((R,2E,4E)-6-(pyridin-2-yl)hepta-2,4-dien-2-yl)oxacyclododec-4-en-6-yl 4-cycloheptylpiperazine-1-carboxylate], the “PD responses (fold change in Pre-EIF4A1 and SLC25A19 expression in tumor)” value in data set [1] was “showed PD responses at a tolerated dose”. The “efficacy / tumor growth in xenograft mouse model” value in data set [2] is “efficacious when administered via the oral route and reduced tumor growth”. In data set [3] (CD-1 mice, 5 mg/kg IV (Table 5)), this molecule had an AUC0-inf/D of 934.15 ng · h/mL/D. For the same molecule, in data set [3] (CD-1 mice, 12 mg/kg PO), the AUC0-inf/D is recorded as 487.06 ng · h/mL/D and the Cmax/D was 141.47 ng/mL/D. Further, the “oral bioavailability and pharmacokinetic properties (in words)” value in data set [3] was “showed oral bioavailability and favorable pharmacokinetic properties; also recorded: possess oral bioavailability and favorable pharmacokinetic properties”. In data set [3] (setting [4]), the AUC(0-inf) is 4670 ng·h/mL, the area under the curve AUC(0-t) was 4450 ng·h/mL, the half-life was 2.54 h and the Vd came to 2.1 L/kg. In data set [3] (mouse, plasma, CD-1 mice, 5 mg/kg IV (Table 5), read-out: CL (converted)), the clearance was 17.8 mL/min/kg. Moreover, in data set [3] (setting [5]), the AUC(0-inf) was determined as 6230 ng·h/mL, the area under the curve AUC(0-t) was 6210 ng·h/mL, the Cmax is 1810 ng/mL and the Tmax stood at 0.5 h. Also, in data set [3] (setting [5]), the bioavailability worked out at 52.1% and the half-life is 3 h.

`C/C(=C\C=C\[C@@H](C)c1ccccn1)[C@H]1OC(=O)C[C@H](O)CC[C@@](C)(O)[C@@H](OC(=O)N2CCC(N3CCCCCC3)CC2)/C=C/[C@@H]1C` [Compound 3, (2S,3S,6S,7R,10R,E)-7,10-dihydroxy-3,7-dimethyl-12-oxo-2-((R,2E,4E)-6-(pyridin-2-yl)hepta-2,4-dien-2-yl)oxacyclododec-4-en-6-yl 4-(azepan-1-yl)piperidine-1-carboxylate]: the AUC0-inf/D in data set [3] (CD-1 mice, 5.964 mg/kg IV) is given as 1.047 μg/mL * hr/D. For the same molecule, in data set [3] (CD-1 mice, 13.307 mg/kg PO), the AUC0-inf/D turned out to be 0.615 μg/mL * hr/D and the “BA (%)” value worked out at 58.758%. For the same molecule, in data set [3], the “oral bioavailability and pharmacokinetic properties (in words)” value is “showed oral bioavailability and favorable pharmacokinetic properties; also recorded: possess oral bioavailability and favorable pharmacokinetic properties”. Further, in data set [3] (setting [6]), the AUC(0-inf) stood at 6240 ng·h/mL, the half-life was 3.66 h, the AUC was found to be 6210 ng·h/mL and the Vd stood at 2.98 L/kg. For the same molecule, the clearance in data set [3] (mouse, plasma, CD-1 mice, 5.964 mg/kg IV, read-out: CLtot (converted)) is 15.9 mL/min/kg. Also, in data set [3] (setting [7]), the AUC(0-inf) was found to be 8190 ng·h/mL, the peak level (Cmax) was 1570 ng/mL, the Tmax came to 2 h and the half-life is 3.32 h. Also, in data set [3] (setting [7]), the AUC turned out to be 8140 ng·h/mL.

As to `C/C(=C\C=C\[C@@H](C)c1ccccn1)[C@H]1OC(=O)C[C@H](O)CC[C@@](C)(O)[C@@H](OC(=O)N2CCC(N3CCCCC3)CC2)/C=C/[C@@H]1C` [Compound 4, (2S,3 S,6S,7R,10R,E)-7,10-dihydroxy-3,7-dimethyl-12-oxo-2-((R,2E,4E)-6-(pyridin-2-yl)hepta-2,4-dien-2-yl)oxacyclododec-4-en-6-yl[1,4′-bipiperidine]-1′-carboxylate], in data set [3] (CD-1 mice, 5 mg/kg IV (Table 7)), the AUC0-inf/D was found to be 1.325 ug/mL * hr/D. Besides, in data set [3] (setting [8]), the AUC0-inf/D is recorded as 0.795 ug/mL * hr/D and the “BA (%)” value is given as 60.024%. For the same molecule, the “oral bioavailability and pharmacokinetic properties (in words)” value in data set [3] is “showed oral bioavailability and favorable pharmacokinetic properties; also recorded: possess oral bioavailability and favorable pharmacokinetic properties”. Besides, in data set [3] (setting [9]), the AUC(0-inf) was 6620 ng·h/mL, the exposure AUC(0-t) was found to be 6610 ng·h/mL, the half-life was 3.01 h and the Vd was 1.89 L/kg. In addition, the clearance in data set [3] (mouse, plasma, CD-1 mice, 5 mg/kg IV (Table 7), read-out: CLtot (converted)) is 12.6 mL/min/kg. In data set [3] (setting [10]), the AUC(0-inf) is 7950 ng·h/mL, the AUC(0-t) turned out to be 7910 ng·h/mL, the peak concentration (Cmax) was 1250 ng/mL and the time of peak concentration (Tmax) was found to be 2 h. In addition, the half-life in data set [3] (setting [10]) was 2.98 h.

The values are drawn from patent publication US9481669B2, “Pladienolide pyridine compounds and methods of use” (Eisai R&D Management Co., Ltd., priority 2014, dated 2016).
